Experimental data taken from PubChem BioAssay AID179 (DTP/NCI, 2004).
Active and inactive are the calls of the source.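 The calls were made as follows: active = compounds giving half or more protection of infected cells from virus-caused growth loss, again on retest; inactive = the rest.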

Tested on: CEM cells HIV-1 protection, formazan growth assay
Assay: NCI AIDS Antiviral Assay
Conditions: for IC50: measured here: growth of uninfected CEM cells
Method: The ability of compounds to protect human CEM cells from HIV-1 infection is measured as a screen for new compounds capable of inhibiting the HIV virus. Five concentrations of drug were tested on uninfected and infected cells and cell growth was measured using a soluble formazan assay. […] Compounds that provided at least 50% protection were retested. Compounds that provided at least 50% protection on retest were listed as moderately active. Compounds that reproducibly provided 100% protection were listed as confirmed active. […] Note that the inability to provide protection could be due to toxicity.

SMILES | outcome | EC50 [µM] | IC50 [µM]
COC1=CC(=O)c2c(O)c3c(c(O)c2C1=O)C[C@](C)(O)C[C@@H]3O | inactive | – | –
O=C1CCC[C@H]2O[C@@H](COCc3ccccc3)C[C@@H]12 | – | > 200 | 151
C[C@@H]1CN2SN1C[C@@H]2C | – | > 1740 | > 1740
Cc1cc(-c2cc(C(C)(C)C)c(O)c(C(C)(C)C)c2)c(C)cc1-c1cc(C(C)(C)C)c(O)c(C(C)(C)C)c1 | – | > 100 | > 100
Cc1ccc(C(=O)/C=C/c2ccccc2)s1 | – | > 200 | 10.7
CCOC(=O)C1(C)CCC(C(C(=O)O)C(=O)O)CC1=O (stereo unspecified) | inactive | – | –
COC1OC(CO)C(O)C1N (stereo unspecified) | inactive | – | –
CC(=O)C1(N=Nc2ccc(S(=O)(=O)Nc3onc(C)c3C)cc2)CCOC1=O (stereo unspecified) | – | > 200 | > 200
Cc1oc2nc(N(C)C)n3c(C)nnc3c2c1C | inactive | – | –
CCCN(CCCC(NC(C)=O)C(=O)NCc1ccccc1)C(=O)N(C)N=O (stereo unspecified) | – | > 174 | > 174
Cc1oc2cc(O)cc(O)c2c(=O)c1C | – | > 200 | 155
Cc1cccc2c(=O)c([Se]c3coc4c(C)cccc4c3=O)coc12 | – | > 33.1 | > 33.1
O=C1OC(=O)C2C1C(c1ccc([N+](=O)[O-])cc1)N1C3C(=O)OC(=O)C3C(c3ccc([N+](=O)[O-])cc3)N21 (stereo unspecified) | – | > 27.5 | > 27.5
CCN(CC(COc1ccc2c(c1)[n+]([O-])nc(N)[n+]2[O-])OC(C)=O)C(C)=O (stereo unspecified) | – | > 200 | 14.8
CC(C)(C)OC(=O)NC(Cc1ccccc1)C(=O)OCN1C(=O)C2C3C=CC(C2C1=O)C1C2C(=O)N(COC(=O)C(Cc4ccccc4)NC(=O)OC(C)(C)C)C(=O)C2C31 (stereo unspecified) | – | > 100 | 15.5
COc1cc2oc(-c3ccc(O)cc3)c(OC3OC(C)C(O)C(O)C3O)c(=O)c2c(O)c1OC (stereo unspecified) | inactive | – | –
Cc1ccc2[nH]c3c(c2c1)C1CCC(C(C)(C)C)CC1C1C(=O)N(c2ccc4c(c2)OCO4)C(=O)C31 (stereo unspecified) | – | > 200 | 11.5

SMILES | outcome | EC50 [µM] | IC50 [µM]
COc1ccc(/C=C2\CSC/C(=C\c3ccc(OC)c(OC)c3OC)C2=O)c(OC)c1OC | – | > 200 | 15.5
N#CC[C@@H](O)COc1ccccc1 | – | > 200 | > 200
O=c1[nH]cnc2cc3c(cc12)nc1n3CCOC1 | – | > 52.5 | > 52.5
O=C(O)c1ccccc1C(=O)Nc1ccc(S(=O)(=O)Nc2nccs2)cc1 | – | > 200 | > 200
CCOc1ccc2nc(NC(=O)C(=O)C3C(=O)C(CC4C(=O)c5ccccc5C4=O)C(=O)CC3(C)C)sc2c1 (stereo unspecified) | – | > 6.92 | > 6.92
COCn1c2ccc(OC(C)=O)cc2c2c(=O)oc(N(C)C)nc21 | – | > 200 | > 200
CC(C)(C)O/N=C/c1cc(NC(=S)c2ccccc2)ccc1Cl | – | 0.135 | 10.7
COC(=O)C12CC3CC(C1)CC(C(=O)OC)(C3)C2 | – | > 513 | 363
COc1cc(C(=O)CBr)c(OC)cc1C | – | > 200 | > 200
COC(=O)c1c2c(cc3c1CC1(C3)Cc3cc4c(c(C(=O)OC)c3C1)CCC4)CCC2 | – | > 200 | > 200
C#CCCCOc1ncccn1 | – | > 200 | > 200
C#C/C=C\CCCC/C=C\C#CC#CCCCC#CC#C[C@H](COS(=O)(=O)O)OS(=O)(=O)O | – | 30.9 | > 200
Cc1nn(C(=O)c2ccc(Cl)cc2)c2c1C(c1cccc([N+](=O)[O-])c1)SC(N)=N2 (stereo unspecified) | – | 126 | 138
COC(=O)c1cc(-c2c[nH]cc2C(=O)OCc2ccccc2)cn1S(=O)(=O)c1ccc(C)cc1 | – | > 200 | 17.8
O=C1C2CCCC3CCCC(C(=O)N1O)C32 (stereo unspecified) | – | > 200 | 39.8
CCNC(=O)C1CCCN1C(=O)C(CCCN=C(N)N)NC(=O)C(CC(C)C)NC(=O)C(Cc1c[nH]c2ccccc12)NC(=O)C(Cc1ccc(O)cc1)NC(=O)C(CO)NC(=O)C(Cc1c[nH]c2ccccc12)NC(=O)C(Cc1cnc[nH]1)NC(=O)C1CCC(=O)N1 (stereo unspecified) | – | > 178 | > 178
